Source: patent publication US4579848A, “5-substituted[1,2,4]triazolo[1,5-c]pyrimidin-2-amines” (American Cyanamid Company, priority 1984, dated 1986)

Tested on: female Hartley-strain guinea pigs
Assay: Passive Anaphylaxis Test
Type: in vivo, guinea pig
Set-up: key: If the Fisher test is significant, the compound is considered active; If the rank sum test is significant, the compound is considered to have weak activity
Conditions: oral, one hour before ovalbumin challenge; standard dose 50 mg/kg; ten animals
Procedure: At -48 hours (relative to antigen challenge at time 0), 2 ml of saline containing 0.2-0.05 IgG hyperimmune serum (depending on batch of antibody used) was injected intraperitoneally (i.p.) into 250-300 g female Hartley-strain guinea pigs. One hour before challenge, the test compound is given to ten animals orally at 4 ml/kg of a suspension in 0.5% carboxymethylcellulose. The standard dose is 50 mg/kg. Ten control animals receive the vehicle only. The challenge consists of an intravenous injection of 0.25-2.0 mg of ovalbumin in one ml of saline. The time to the first observable symptom of anaphylaxis (normally this is a scratching of the nose) and the time to loss of righting reflex are recorded for each animal. Thirty minutes after the challenge the numbers of deceased and living animals are also recorded.
The treated and control groups are compared by a Mann-Whitney rank sum test for the times to symptom and times to collapse. In addition, a Fisher's exact test is done on the number of collapsed vs. noncollapsed for control and treated groups. If the Fisher test is significant, the compound is considered active. If the rank sum test is significant, the compound is considered to have weak activity.

With `Nc1nc2ccnc(-c3ccccn3)n2n1` [5-(2-pyridinyl)[1,2,4]triazolo[1,5-c]pyrimidin-2-amine] the “activity in passive anaphylaxis test (Fisher's exact test on collapsed vs. noncollapsed)” value was “active”.

Tested on: immunologically stimulated human basophils
Assay: Inhibition of histamine release from immunologically stimulated human basophils
Type: cell-based
Conditions: Leukocyte, 1 h; human leukocytes challenged with anti-IgE or antigen, 60 minutes at 37° C.; linear regression; read-out: ED50 (the concentration in μM which causes a 50% inhibition of histamine release)
Procedure: The novel compounds of this invention have been tested by the procedure of Lichtenstein, L. M. and Osler, A. G., J. Exp. Med., 120, 507-530 (1964), which evaluates the ability of compounds to inhibit mediator (histamine) release from immunologically stimulated human basophils.
Eighty milliliters of blood is withdrawn from subjects with known histamine release to anti-IgE, ragweed antigen or other specific allergen, using four 20 ml heparinized tubes. This 80 ml of blood is mixed with 20 ml of saline containing 0.6 g of dextrose and 1.2 g of dextran. The blood is allowed to sediment at room temperature in two 50 ml polycarbonate centrifuge tubes until a sharp interface develops between the red cells and plasma (60-90 minutes). The plasma (top) layer from each tube is withdrawn by pipet and transferred to respective 50 ml polycarbonate tubes. The plasma is centrifuged for 8 minutes at 110X g at 4° C. The supernatant is carefully poured off as completely as possible and the cell button is resuspended in 2-3 ml of Tris-A buffer using a siliconized Pasteur pipet. The resuspension is accomplished by drawing the liquid gently in and out of the pipet, with the tip below the liquid, until an even suspension of cells is obtained. Sufficient Tris-A buffer is then added to bring the volume in the tube to about 45 ml and the tube is centrifuged at 110X g for 8 minutes at 4° C. The supernatant is poured off and the cell button is resuspended and centrifuged as described above. The supernatant is poured off and the cell button is suspended in 2-3 ml of Tris-ACM buffer to make the final volume sufficient to allow addition to the reaction tubes.
Reaction tubes containing anti-IgE or antigens, either alone or with test compound in a total volume of 0.2 ml are prepared and placed in a 37° C. bath. The cells are warmed to 37° C. and frequently swirled to ensure an even suspension, while 1.0 ml aliquots are added to each reaction tube. The tubes are then incubated for 60 minutes at 37° C., vortexing the tubes gently every 15 minutes to keep the cells evenly suspended. When the reaction is complete, the tubes are centrifuged at 4° C. for 10 minutes at 1500 rpm to sediment the cells. One ml aliquots of supernatant are transferred to 12X 75 mm polyethylene tubes and 0.2 ml of 8% perchloric acid is added to each tube. Blanks and totals are included in each test. The blanks have cells and all reagents except antigen or anti-IgE. The totals contain 0.24 ml of 8% perchloric acid, one ml of cells and 0.2 ml of buffer. All samples are then centrifuged to remove the precipitate protein.
This automated method has been described by Siraganian, R. P., in Anal. Biochem., 57, 383 (1974) and J. Immunol. Methods, 7, 283 (1975) and is based on the manual method of Shore, P. A., et al., J. Pharmacol. Exp. Ther., 217, 182 (1959).
The automated system consists of the following Technicon Autoanalyzer II components: Sampler IV, Dual-Speed Proportioning Pump III, Fluoronephelometer with a narrow pass primary filter 7-60 and a secondary filter 3-74, Recorder, and Digital Printer. The manifold used is the one described by Siraganian vide supra, with the following modifications: the dialyzer is omitted; all pumping tubes pass through a single proportioning pump with large capacity and twice the volume of sample is taken for analysis.
The automated chemistry consists of the following steps: Extraction from alkaline saline into butanol, back extraction into dilute hydrochloric acid by addition of heptane, reaction of histamine with o-phthaldialdehyde(OPT) at high pH and conversion of the OPT adduct to a stable fluorophore with phosphoric acid. The reaction product is then passed through the fluorometer. The full scale response is adjusted to 50 ng histamine base with a threshold sensitivity of approximately 0.5 ng.
The instrument blank (wash) is subtracted from the ng histamine of each sample. […]

Going from `Nc1nc2ccnc(-c3cccc(C(F)(F)F)c3)n2n1` [5-[3-(trifluoromethyl)phenyl][1,2,4]triazolo[1,5-c]pyrimidin-2-amine] to `CNc1nc2ccnc(-c3cccc(C(F)(F)F)c3)n2n1` [N-Methyl-5-[3-trifluoromethyl)phenyl][1,2,4]triazolo[1,5-c]pyrimidin-2-amine], the IC50 rises from 2.7 µM to 16 µM (5.9-fold). The first is the more potent here.

`CC(=O)Nc1nc2c(C)cnc(-c3cccc([N+](=O)[O-])c3)n2n1` [N-[8-Methyl-5-(3-nitrophenyl)[1,2,4]triazolo[1,5-c]pyrimidin-2-yl]acetamide] and `Cc1cnc(-c2cccc([N+](=O)[O-])c2)n2nc(N)nc12` [8-Methyl-5-(3-nitrophenyl)[1,2,4]triazolo[1,5-c]pyrimidin-2-amine] are within 1.5-fold of each other in IC50: 11 µM for the first, 8.7 µM for the second.

`Nc1nc2ccnc(-c3ccc(F)cc3)n2n1` [5-(4-fluorophenyl)[1,2,4]triazolo[1,5-c]pyrimidin-2-amine] and `Nc1nc2ccnc(-c3ccncc3)n2n1` [5-(4-pyridinyl)[1,2,4]triazolo[1,5-c]pyrimidin-2-amine] are within 1.5-fold of each other in IC50: 31 µM for the first, 33 µM for the second.

`Cc1ccc(S(=O)(=O)Nc2cccc(-c3nccc4nc(N)nn34)c2)cc1` [N-[3-(2-Amino[1,2,4]triazolo[1,5-c]pyrimidin-5yl)phenyl]-4-methylbenzenesulfonamide] and `CC(=O)Nc1nc2ccnc(-c3cccc(NS(=O)(=O)c4ccc(C)cc4)c3)n2n1` [N-[5-[3-[[(4-Methylphenyl)sulfonyl]amino]phenyl]-[1,2,4]triazolo[1,5-c]pyrimidin-2-yl]acetamide] are within 1.5-fold of each other in IC50: 1.5 µM for the first, 1.7 µM for the second.

Compared with `Cc1cnc(-c2cccc(C(F)(F)F)c2)n2nc(N)nc12` [8-Methyl-5-[3-(trifluoromethyl)phenyl][1,2,4]triazolo[1,5-c]pyrimidin-2-amine], `Cc1cc2nc(N)nn2c(-c2cccc(C(F)(F)F)c2)n1` [7-methyl-5-[3-(trifluoromethyl)phenyl][1,2,4]triazolo[1,5-c]pyrimidin-2-amine] is 18-fold higher in IC50: 5.6 µM for the first, 100 µM for the second. The first is the more potent here.

Going from `Nc1nc2ccnc(-c3cccc(Br)c3)n2n1` [5-(3-bromophenyl)[1,2,4]triazolo[1,5-c]pyrimidin-2-amine] to `Cc1cccc(-c2nccc3nc(N)nn23)c1` [5-(3-Methylphenyl)[1,2,4]triazolo[1,5-c]pyrimidin-2-amine], the IC50 rises from 3.3 µM to 7.8 µM (2.4-fold). The first is the more potent here.

Going from `C#Cc1cccc(-c2nccc3nc(N)nn23)c1` [5-(3-Ethynylphenyl)[1,2,4]triazolo[1,5-c]pyrimidin-2-amine] to `Nc1nc2ccnc(-c3cccc(Cl)c3)n2n1` [5-(3-chlorophenyl)[1,2,4]triazolo[1,5-c]pyrimidin-2-amine], the IC50 falls from 14 µM to 4.3 µM (3.3-fold).

Going from `Nc1nc2ccnc(-c3cccc(OC(F)F)c3)n2n1` [5-[3-(difluoromethoxy)phenyl][1,2,4]triazolo[1,5-c]pyrimidin-2-amine] to `Nc1nc2ccnc(-c3cccc(C(Cl)Cl)c3)n2n1` [5-[3-(dichloromethyl)phenyl][1,2,4]triazolo[1,5-c]pyrimidin-2-amine], the IC50 falls from 3 µM to 1.2 µM (2.5-fold). The second is the more potent here.

Going from `CC(=O)Nc1nc2c(C)cnc(-c3cccc(NS(=O)(=O)c4ccc(C)cc4)c3)n2n1` [N-[8-Methyl-5-[3-[[4-methylphenyl)sulfonyl]amino]phenyl][1,2,4]triazolo[1,5-c]pyrimidin-2-yl]acetamide] to `CC(=O)Nc1nc2ccnc(-c3cccc(C(F)(F)F)c3)n2n1`, the IC50 falls from 34.4 µM to 20 µM (1.7-fold). The second is the more potent here.

First: Cc1cnccc1-c1nccc2nc(N)nn12 [5-(3-methyl-4-pyridinyl)[1,2,4]triazolo[1,5-c]pyrimidin-2-amine]
Second: Nc1nc2ccnc(-c3cccnc3)n2n1 [5-(3-pyridinyl)[1,2,4]triazolo[1,5-c]pyrimidin-2-amine]
The IC50 of the first is 13-fold lower: 3.8 µM for the first, 49.4 µM for the second.

`CCOC(=O)c1cccc(-c2nccc3nc(N)nn23)c1` [3-(2-amino[1,2,4]triazolo[1,5-c]pyrimidin-5-yl)benzoic acid, ethyl ester] and `CCOC(=O)c1ccc(-c2nccc3nc(N)nn23)cc1` [4-(2-amino[1,2,4]triazolo[1,5-c]pyrimidin-5-yl)benzoic acid, ethyl ester] are within 1.5-fold of each other in IC50: 11 µM for the first, 16 µM for the second.

Compared with `CN(C)C(=O)c1cccc(-c2nccc3nc(N)nn23)c1` [3-(2-Amino[1,2,4]triazolo[1,5-c]pyrimidin-5-yl)-N,N--dimethylbenzamide], `Nc1nc2ccnc(-c3cccc(C=O)c3)n2n1` [3-(2-Amino[1,2,4]triazolo[1,5-c]pyrimidin-5-yl)benzaldehyde] is 14-fold lower in IC50: 11 µM for the first, 0.8 µM for the second. The second is the more potent here.

First: OC(CCl)CNc1nc2ccnc(-c3cccc(C(F)(F)F)c3)n2n1 (centres unmarked) [1-Chloro-3-[[5-[3-(trifluoromethyl)phenyl][1,2,4]triazolo[1,5-c]pyrimidin-2-yl]amino]-2-propanol]
Second: Nc1nc2ccnc(-c3cc(C(F)(F)F)cc(C(F)(F)F)c3)n2n1 [5-[3,5-bis(trifluoromethyl)phenyl][1,2,4]triazolo[1,5-c]pyrimidin-2-amine]
The IC50 of the first is 14-fold higher: 9.5 µM for the first, 0.7 µM for the second. The second is the more potent here.

`Nc1nc2ccnc(-c3cccc([N+](=O)[O-])c3)n2n1` [5-(3-nitrophenyl)[1,2,4]triazolo[1,5-c]pyrimidin-2-amine] and `Nc1nc2ccnc(-c3cc[n+]([O-])cc3)n2n1` [5-(4-Pyridinyl)[1,2,4]triazolo[1,5-c]pyrimidin-2-amine, pyridine-1-oxide] are within 1.5-fold of each other in IC50: 3.8 µM for the first, 4.9 µM for the second.
